Tests used:
D4 human receptors = target: T1, D4 human receptors (Homo sapiens, UniProt P21917); test: D4 Radioligand Receptor Binding Assay ([3H] YM-09151-2, CHO cell membranes); settings: compound 10^−7 M, singlicate, [3H] YM-09151-2 0.15-0.25 nM
T1 construct: expressed in transfected cells; host or cells: CHO cells
T1 sequence (P21917 1-419): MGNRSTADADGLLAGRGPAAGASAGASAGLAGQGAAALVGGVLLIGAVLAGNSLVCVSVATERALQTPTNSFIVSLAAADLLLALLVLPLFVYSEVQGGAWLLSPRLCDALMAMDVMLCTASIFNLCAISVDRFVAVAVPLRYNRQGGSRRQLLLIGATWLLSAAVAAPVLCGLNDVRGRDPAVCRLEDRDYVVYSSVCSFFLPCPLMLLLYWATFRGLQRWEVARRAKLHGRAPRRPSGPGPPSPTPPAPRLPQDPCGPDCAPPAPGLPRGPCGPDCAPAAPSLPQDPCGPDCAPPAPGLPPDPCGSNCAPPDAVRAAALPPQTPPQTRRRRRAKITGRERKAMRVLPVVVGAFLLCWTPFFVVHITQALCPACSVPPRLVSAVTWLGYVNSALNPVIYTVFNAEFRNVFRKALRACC
Method: D4 Radioligand Receptor Binding Assay
Membranes from CHO cells expressing D4 human receptors, were suspended in incubation buffer.
Binding assays were performed in MultiProbe 204 pipetting system (Packard), according to a predetermined mapping, consistent with the software Screen. The compounds were tested in singlicate at one concentration (10^−7 M) in a total volume of 1000 μl (980 μl of diluted membranes, 10 μl DMSO or unlabelled ligand and 10 μl of [^3H] YM-09151-2 (0.15-0.25 nM). After incubation for 120 minutes at 27° C., the reaction was stopped by rapid filtration through Tomtec Cell Harvester (48 wells) using Filtermat B (presoaked in 0.1% PEI) filters. Filters were washed with ice-cold 50 mM Tris-HCl (pH 7.4) buffer (9×700 μl), dried, covered with MeltiLex B/HS (Wallac) scintillator sheets and heated in oven at 80° C. to 90° C. for about 10 minutes, transferred into plastic sample bags (Wallac), sealed, and put into 1024 Beta Plate scintillation counter (Wallac). Non-specific binding was determined in the presence of clozapine dissolved in DMSO to a final concentration of 10^−5 M.
The specific radioligand binding to the receptor was defined by the difference between total binding and non-specific binding, determined in the presence of an excess of unlabelled ligand. Results were expressed as percentage of control specific binding obtained in the presence of the compounds.

5-HT1A = target: T2, 5-HT1A (Homo sapiens, UniProt P08908); test: 5HT1A Radioligand Receptor Binding Assay ([3H]-8-OH-DPAT, CHO cell membranes); parameters: expressed in transfected cells; host or cells: CHO cells; settings: CHO membranes, human 5-HT1A; for IC50: [3H]-8-OH-DPAT, read-out: 5-HT1A Receptor Binding IC50
T2 sequence (P08908 1-422): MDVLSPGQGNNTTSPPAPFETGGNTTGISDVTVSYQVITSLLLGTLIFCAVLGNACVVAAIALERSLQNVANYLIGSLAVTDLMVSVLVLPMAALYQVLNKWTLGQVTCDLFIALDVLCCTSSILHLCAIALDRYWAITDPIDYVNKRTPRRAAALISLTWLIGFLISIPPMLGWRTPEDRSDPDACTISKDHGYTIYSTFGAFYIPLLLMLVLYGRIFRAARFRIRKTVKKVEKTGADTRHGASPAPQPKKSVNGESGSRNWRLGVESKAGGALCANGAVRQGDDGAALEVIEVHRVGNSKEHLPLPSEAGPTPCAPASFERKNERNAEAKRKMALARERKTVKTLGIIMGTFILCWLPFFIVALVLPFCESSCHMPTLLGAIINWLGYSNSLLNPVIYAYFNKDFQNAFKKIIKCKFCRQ
Method: 5HT1A Radioligand Receptor Binding Assay
Membranes from CHO cells, expressing 5-HT1A human receptors were suspended in incubation buffer.
Binding assays were performed in MultiProbe 204 pipetting system (Packard), according to a predetermined mapping, consistent with the software Screen. The compounds were tested in singlicate at one concentration (10^−7 M) in a total volume of 1000 μl. 980 μl of diluted membranes, 10 μl DMSO or unlabelled ligand and 10 μl of [^3H]-8-OH-DPAT (0.6-0.7 nM) were incubated for 60 minutes at 27° C. The reaction was stopped by rapid filtration through Tomtec Cell Harvester (48 wells) using Filtermat B (presoaked in 0.1% PEI) filters. Filters were washed with ice-cold 50 mM Tris-HCl (pH 7.4) buffer (9×700 μl), dried, covered with MeltiLex B/HS scintillator sheets (Wallac) and heated at 80° C. to 90° C. for about 10 minutes, transferred into plastic sample bags (Wallac), sealed, and put into 1024 Beta Plate scintillation counter (Wallac). Non-specific binding was determined in the presence of 5-HT (10^−5 M).
The specific radioligand binding to the receptor was defined by the difference between total binding and non-specific binding, determined in the presence of an excess of unlabelled ligand. Results were expressed as percentage of control specific binding obtained in the presence of the compounds. The affinity values (IC50) for the compounds were obtained by a nonlinear least squares regression analysis on the basis of a one binding site model.

[1] = compound 10^−7 M, singlicate, [3H]-8-OH-DPAT 0.6-0.7 nM

| SMILES | D4 Receptor Binding Assay % inhibition (10^−7 M) (D4 human receptors) [%] | 5-HT1A Receptor Binding Assay % inhibition (10^−7 M) (5-HT1A; [1]) [%] | inhibition at 0.1 µM (D4 human receptors) [%] | IC50 (5-HT1A) [nM] | inhibition at 0.1 µM (5-HT1A; [1]) [%] |
| --- | --- | --- | --- | --- | --- |
| COc1ccccc1N1CCN(C/C=C/Cn2c(=O)n(CCNS(C)(=O)=O)c3ccccc32)CC1 [Compound 535] | 39 | 97 | – | – | – |
| O=c1n(C/C=C\CN2CCN(c3cccc(Cl)c3)CC2)c2ccccc2n1CCN1CCOCC1 [Compound 263] | – | – | 42 | 8.8 | 92 |
| O=c1n(CCO)c2ccccc2n1CCCCN1CCN(c2ccccc2)CC1 [Compound 56] | 71 | 63 | – | – | – |
| COCCn1c(=O)n(CCCCN2CCN(c3ccccc3)CC2)c2ccccc21 [Compound 1] | 38 | 56 | – | – | – |
| CCNC(=O)OCCn1c(=O)n(CCCCN2CCN(c3ccccn3)CC2)c2ccccc21 [Compound 78] | 44 | 69 | – | – | – |
| COCCn1c(=O)n(CCCCN2CCc3c([nH]c4ccccc34)C2)c2ccccc21 [Compound 7] | 91 | 77 | – | – | – |
| O=c1n(C/C=C/CN2CC=C(c3ccccc3)CC2)c2ccccc2n1CCN1CCCCC1 [Compound 336] | 81 | 90 | – | – | – |
| O=c1n(C/C=C\CN2CCN(c3cccc(Cl)c3)CC2)c2ccccc2n1CCO [Compound 365] | – | – | 63 | 15 | – |
| CCNC(=O)OCCn1c(=O)n(CCCCN2CCN(c3cccc(C)c3C)CC2)c2ccccc21 [Compound 92] | 55 | 94 | – | – | – |
| CC(=O)NCCn1c(=O)n(CCCCN2CCN(c3ccccc3Cl)CC2)c2ccccc21 [Compound 118] | 36 | 80 | – | – | – |
| CCNC(=O)OCCn1c(=O)n(CCCCN2CCN(c3ccccc3)CC2)c2ccccc21 [Compound 75] | 54 | 67 | – | – | – |
| O=c1n(CCCCN2CCN(c3ccc(Cl)c(Cl)c3)CC2)c2ccccc2n1CCN1CCCCC1 [Compound 30] | 90 | 44 | – | – | – |
| O=c1n(CCCCN2CCN(c3cccc(Cl)c3)CC2)c2ccccc2n1CCN1CCCCC1 [Compound 24] | 67 | 90 | – | – | – |
| CC(=O)NCCn1c(=O)n(CCCCN2CCN(c3ccc(Cl)c(Cl)c3)CC2)c2ccccc21 [Compound 107] | 58 | 55 | – | – | – |
| O=c1n(CCN2CCCCC2)c2ccccc2n1CCN1CCN(c2cccc(Cl)c2)CC1 [Compound 145] | 42 | 85 | – | – | – |
| O=c1n(CCCCN2CCN(c3ccccc3)CC2)c2ccccc2n1CCN1CCCCC1 [Compound 20] | 60 | 50 | – | – | – |
| O=c1n(C/C=C\CN2CCN(c3ccccn3)CC2)c2ccccc2n1CCO [Compound 364] | 36 | 77 | – | – | – |
| CCNC(=O)OCCn1c(=O)n(CCCCN2CCN(c3ccccc3Cl)CC2)c2ccccc21 [Compound 96] | 72 | 92 | – | – | – |
| O=c1n(C/C=C\CN2CCc3c([nH]c4ccccc34)C2)c2ccccc2n1CCN1CCCCC1 [Compound 316] | 94 | 72 | – | – | – |
| O=c1n(CCCCN2CCN(c3ncccn3)CC2)c2ccccc2n1CCN1CCCCC1 [Compound 25] | 44 | 48 | – | – | – |
| CCNC(=O)OCCn1c(=O)n(CCCCN2CCN(c3ccc(Cl)c(Cl)c3)CC2)c2ccccc21 [Compound 85] | 79 | 77 | – | – | – |
| CCNC(=O)OCCn1c(=O)n(CCCCN2CCN(c3ccccc3C)CC2)c2ccccc21 [Compound 95] | 64 | 85 | – | – | – |
| CS(=O)(=O)NCCn1c(=O)n(C/C=C\CN2CCN(c3ccc(Cl)c(Cl)c3)CC2)c2ccccc21 [Compound 505] | 58 | 78 | – | – | – |
| O=c1n(CCCCN2CCN(c3ccccc3)CC2)c2ccccc2n1CCN1CCOCC1 [Compound 39] | 42 | 36 | – | – | – |
| O=c1n(CCO)c2ccccc2n1CCN1CCN(c2ccccn2)CC1 [Compound 182] | 45 | 62 | – | – | – |
| O=c1n(CCO)c2ccccc2n1CCCCN1CC=C(c2ccccc2)CC1 [Compound 65] | 74 | 52 | – | – | – |
| COCCn1c(=O)n(CCCCN2CCN(c3ccccc3OC)CC2)c2ccccc21 [Compound 19] | 32 | 69 | – | – | – |
| O=c1n(CCCCN2CC=C(c3ccccc3)CC2)c2ccccc2n1CCN1CCCCC1 [Compound 29] | 83 | 57 | – | – | – |
| O=c1n(CCO)c2ccccc2n1CCCCN1CCN(c2ccccn2)CC1 [Compound 59] | 51 | 75 | – | – | – |
| O=c1n(C/C=C\CN2CCN(c3ccccc3)CC2)c2ccccc2n1CCO [Compound 361] | 46 | 86 | – | – | – |
